In patent US10189809B2, “SGC stimulators” (Ironwood Pharmaceuticals, Inc., priority 2010, dated 2019):
pEC50: −log10 of the molar value. Where two headings read alike, the source gives them in different places.

Assays:
[1] = molecular target: T1, soluble guanylate cyclase (sGC) (Homo sapiens (Human), UniProt Q02108+Q02153); assay: sGC-HEK-cGMP assay run in the absence of SNP (HEK WC assay); assay type: cell-based; settings: compound at 30 μM, absence of SNP
Experimental: Human embryonic kidney cells (HEK293), endogenously expressing soluble guanylate cyclase (sGC), were used to evaluate the activity of test compounds. Compounds stimulating the sGC receptor should cause an increase in the intracellular concentration of cGMP. HEK 293 cells were seeded in Dulbecco's Modification of Eagle's Medium supplemented with fetal bovine serum (10% final) and L-glutamine (2 mM final) in a 200 μL volume at a density of 1×10^5 cells/well in a poly-D-lysine coated 96 well flat bottom plate and grown overnight at 37° C. Medium was aspirated and cells were washed with 1× Hank's Buffered Saline Salt Solution (200 μL). Cells were then incubated for 15 minutes at 37° C. with 0.5 mM 3-isobutyl-1-methylxanthine (200 μL). Test article was then added to the assay mixture (2 μL) and incubated at 37° C. for 10 minutes. After the 10 minute incubation, the assay mixture was aspirated and 0.1M HCl (200 μL) was added to the cells. The plate was incubated at 4° C. for 30 minutes in the 0.1M HCl to stop the reaction and lysed the cells. The plates were then centrifuged at 1,200 g for 5 minutes at room temperature. Supernatants were collected and transferred to a new flat bottom 96 well plate for analysis. Vehicle controls were carried out using DMSO (1%). A known sGC stimulator, BAY 41-2272, was used as the positive control. Samples were diluted with an equal volume of 1 M Ammonium Acetate (pH 7) to neutralize samples for better chromatography. A 2× cGMP standard curve was prepared in 0.1 M HCl and then diluted with an equal volume of 1 M Ammonium Acetate, with the following final concentrations in nM: 1024, 512, 256, 128, 64, 32, 16, 8, 4, 2, 1. cGMP concentrations were determined from each sample using the LC/MS conditions (Table 2 below) and calculated standard curve. EC50 values were calculated from concentration-response curves generated with GraphPad Prism Software.

[2] = molecular target: T1, soluble guanylate cyclase (sGC); assay: sGC-HEK-cGMP assay run with SNP incubation (HEK WC assay); assay type: cell-based; settings: for HEK WC Assay (fold increase at 30 μM in the presence of 10 μM SNP): compound at 30 μM; for pEC50: in the presence of 10 uM SNP
Procedure, shortened: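 HEK293 cells with endogenous sGC were pretreated with 0.5 mM IBMX for 15 min at 37 °C, then exposed to test compound plus sodium nitroprusside for 10 min at 37 °C.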

[3] = read-out: HEK WC Assay (% Emax at 10 μM with 10 uM SNP)
[4] = read-out: HEK WC Assay (% Emax at 30 μM with 10 uM SNP)
[5] = read-out: HEK WC Assay (% Emax at 1 μM with 10 uM SNP)

T1 sequence (Q02153 whole entry): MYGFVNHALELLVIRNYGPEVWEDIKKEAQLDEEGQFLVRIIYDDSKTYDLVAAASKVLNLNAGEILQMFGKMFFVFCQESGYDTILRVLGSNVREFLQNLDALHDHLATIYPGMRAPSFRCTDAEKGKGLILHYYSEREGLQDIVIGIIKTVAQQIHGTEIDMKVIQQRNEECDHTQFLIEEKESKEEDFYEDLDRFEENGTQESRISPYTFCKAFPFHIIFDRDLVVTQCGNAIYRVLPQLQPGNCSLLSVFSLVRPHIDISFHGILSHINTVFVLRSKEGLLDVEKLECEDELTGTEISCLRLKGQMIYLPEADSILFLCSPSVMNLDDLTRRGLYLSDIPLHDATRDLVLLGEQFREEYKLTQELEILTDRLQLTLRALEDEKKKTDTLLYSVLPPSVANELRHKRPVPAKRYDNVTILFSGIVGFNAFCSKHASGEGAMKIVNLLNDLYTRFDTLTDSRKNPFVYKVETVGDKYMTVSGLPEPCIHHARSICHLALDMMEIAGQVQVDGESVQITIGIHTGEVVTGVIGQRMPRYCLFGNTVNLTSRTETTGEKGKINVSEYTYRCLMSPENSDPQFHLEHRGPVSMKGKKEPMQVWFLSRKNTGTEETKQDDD
T1 sequence (Q02108 whole entry): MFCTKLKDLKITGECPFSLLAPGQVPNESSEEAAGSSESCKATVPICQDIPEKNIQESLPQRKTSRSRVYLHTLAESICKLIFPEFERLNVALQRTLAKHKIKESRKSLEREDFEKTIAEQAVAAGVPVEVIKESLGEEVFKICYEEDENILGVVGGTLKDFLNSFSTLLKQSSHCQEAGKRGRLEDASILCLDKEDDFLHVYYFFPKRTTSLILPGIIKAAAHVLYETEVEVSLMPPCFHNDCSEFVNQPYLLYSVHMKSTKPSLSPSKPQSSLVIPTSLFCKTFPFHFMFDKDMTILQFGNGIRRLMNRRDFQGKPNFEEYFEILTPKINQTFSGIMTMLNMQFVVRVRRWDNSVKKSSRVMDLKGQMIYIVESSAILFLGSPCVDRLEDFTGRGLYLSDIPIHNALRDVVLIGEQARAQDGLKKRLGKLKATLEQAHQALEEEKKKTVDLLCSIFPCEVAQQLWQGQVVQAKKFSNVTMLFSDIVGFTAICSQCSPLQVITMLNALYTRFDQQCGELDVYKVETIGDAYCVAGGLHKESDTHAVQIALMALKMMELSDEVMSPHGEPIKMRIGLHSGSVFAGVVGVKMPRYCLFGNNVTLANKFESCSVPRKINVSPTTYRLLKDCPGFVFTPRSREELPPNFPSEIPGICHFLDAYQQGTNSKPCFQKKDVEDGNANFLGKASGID

Row | HEK WC Assay (fold increase at 30 μM in the absence of SNP) [1] | HEK WC Assay (fold increase at 30 μM in the presence of 10 μM SNP) [2] | pEC50 [2] | Emax [2, 3] [%] | Emax [2, 4] [%] | Emax [2, 5] [%] | Emax at 10 µM ([2]; read-out: HEK WC Assay (% Emax at 10 μM/with 10 uM SNP)) [%] | Emax at 30 µM ([2]; read-out: HEK WC Assay (% Emax at 30 μM/with 10 uM SNP)) [%] | Compound
1 | B (B = 1 to <2 fold increase) | C (C = 2 to <5 fold increase) | 4.22 to 4.40 | 0 to 10 | 10 to 20 |  |  |  | Oc1coc(-c2cc(-c3ncccn3)nn2Cc2ccccc2F)n1 [Compound I-295]
2 | C (C = 2 to <5 fold increase) | E (E = 10 to <20 fold increase) | > 4.70 | 60 to 80 | 60 to 80 | 20 to 40 |  |  | CC1(C(=O)Nc2cnc(-c3cc(-c4ccon4)n(Cc4ccccc4F)n3)nc2N)CCCO1 (stereo not shown) [Compound I-232]
3 | C (C = 2 to <5 fold increase) | D (D = 5 to <10 fold increase) | 3.52 to 4.00 | 40 to 60 | 10 to 20 | 0 to 10 |  |  | COc1cnc(-c2cc(-c3ccon3)n(Cc3ccccc3F)n2)nc1N [Compound I-173]
4 | C (C = 2 to <5 fold increase) | C (C = 2 to <5 fold increase) |  |  |  |  |  |  | Fc1ccccc1Cn1nc(-c2ccccn2)cc1N1CCCC1 [Compound I-288]
5 | C (C = 2 to <5 fold increase) | E (E = 10 to <20 fold increase) | > 4.70 | 40 to 60 | 40 to 60 | 20 to 40 |  |  | CN(C(=O)C(C)(C)C)c1cnc(-c2cc(-c3ccon3)n(Cc3ccccc3F)n2)nc1N [Compound I-234]
6 | C (C = 2 to <5 fold increase) | E (E = 10 to <20 fold increase) | 4.40 to 4.70 | 40 to 60 | 40 to 60 | 10 to 20 |  |  | CN(C(=O)c1ccccc1)c1cnc(-c2cc(-c3ccon3)n(Cc3ccccc3F)n2)nc1N [Compound I-228]
7 | E (E = 10 to <20 fold increase) | E (E = 10 to <20 fold increase) | > 4.70 | 80 to 100 | 100 to 120 | 60 to 80 |  |  | Nc1nc(-c2cc(-c3ccon3)n(Cc3ccccc3F)n2)ncc1NC(=O)c1ccon1 [Compound I-175]
8 | B (B = 1 to <2 fold increase) | B (B = 1 to <2 fold increase) |  | 0 to 10 | 0 to 10 |  | 20 to 40 | 40 to 60 | CCOC(=O)c1cnc(-c2cc(-c3ccon3)n(Cc3ccccc3F)n2)nc1NCc1ccc(OC)cc1 [Compound I-134]
9 | D (D = 5 to <10 fold increase) | E (E = 10 to <20 fold increase) | 4.40 to 4.70 | 20 to 40 | 40 to 60 | 20 to 40 |  |  | Nc1nc(-c2cc(-c3ccon3)n(Cc3ccccc3F)n2)ncc1NC(=O)c1ccccc1OC(F)(F)F [Compound I-211]
10 | E (E = 10 to <20 fold increase) | E (E = 10 to <20 fold increase) | > 4.70 | 80 to 100 | > 120 | 60 to 80 |  |  | Cc1ccc(C(=O)Nc2cnc(-c3cc(-c4ccon4)n(Cc4ccccc4F)n3)nc2N)cc1 [Compound I-181]
11 | D (D = 5 to <10 fold increase) | E (E = 10 to <20 fold increase) | > 4.70 | 60 to 80 | 60 to 80 | 20 to 40 |  |  | Nc1nc(-c2cc(-c3ccon3)n(Cc3ccccc3F)n2)ncc1NC(=O)[C@@H]1CCCN1C(=O)C(F)(F)F [Compound I-219]
12 | B (B = 1 to <2 fold increase) | D (D = 5 to <10 fold increase) | 4.00 to 4.22 | 10 to 20 | 20 to 40 | 0 to 10 |  |  | Cc1nc(-c2cc(-c3ccon3)n(Cc3ccccc3F)n2)nc(O)c1F [Compound I-203]
13 | C (C = 2 to <5 fold increase) | E (E = 10 to <20 fold increase) | 4.40 to 4.70 | 20 to 40 | 40 to 60 | 10 to 20 |  |  | Fc1cccc(F)c1Cn1nc(-c2ncccn2)cc1-c1ccon1 [Compound I-199]
14 | B (B = 1 to <2 fold increase) | B (B = 1 to <2 fold increase) |  | 0 to 10 | 0 to 10 | 0 to 10 |  |  | FC(F)(F)c1ccccc1Cn1nc(-c2ncccn2)cc1-c1ccon1 [Compound I-201]
15 | D (D = 5 to <10 fold increase) | E (E = 10 to <20 fold increase) | > 4.70 | 40 to 60 | 60 to 80 | 40 to 60 |  |  | Nc1nc(-c2cc(-c3ccon3)n(Cc3ccccc3F)n2)ncc1NC(=O)C1(C(F)(F)F)CCC1 [Compound I-243]
16 | C (C = 2 to <5 fold increase) | C (C = 2 to <5 fold increase) | 4.22 to 4.40 | 20 to 40 | 20 to 40 |  |  |  | N#Cc1cc(-c2ncccn2)nn1Cc1ccccc1F [Compound I-293]
17 | D (D = 5 to <10 fold increase) | E (E = 10 to <20 fold increase) | > 4.70 | 40 to 60 | 60 to 80 | 40 to 60 |  |  | Fc1cccc(Cn2nc(-c3ncccn3)cc2-c2ccon2)c1F [Compound I-198]
18 | E (E = 10 to <20 fold increase) | D (D = 5 to <10 fold increase) | > 4.70 | 100 to 120 | 80 to 100 | 60 to 80 |  |  | Cc1cccc(C(=O)Nc2cnc(-c3cc(-c4ccon4)n(Cc4ccccc4F)n3)nc2N)c1 [Compound I-183]
19 | B (B = 1 to <2 fold increase) | E (E = 10 to <20 fold increase) | > 4.70 | 20 to 40 | 20 to 40 |  |  |  | Fc1ccccc1Cn1nc(-c2ncccn2)cc1-c1ncco1 [Compound I-309]
20 | C (C = 2 to <5 fold increase) | E (E = 10 to <20 fold increase) |  | 40 to 60 | 40 to 60 |  |  |  | Oc1nc(-c2cc(-c3ccon3)n(Cc3ccccc3F)n2)ncc1-c1ccncc1 [Compound I-163]
21 | D (D = 5 to <10 fold increase) | F (F = 20 to <30 fold increase) | > 4.70 | 60 to 80 | 60 to 80 | 40 to 60 |  |  | Nc1nc(-c2cc(-c3ccon3)n(Cc3ccccc3F)n2)ncc1NC(=O)c1cccc(Cl)c1 [Compound I-187]
22 | E (E = 10 to <20 fold increase) | E (E = 10 to <20 fold increase) | > 4.70 | 100 to 120 | 80 to 100 | 60 to 80 |  |  | Nc1nc(-c2cc(-c3ccon3)n(Cc3ccccc3F)n2)ncc1NC(=O)c1cccc(F)c1 [Compound I-171]
23 | D (D = 5 to <10 fold increase) | E (E = 10 to <20 fold increase) | 4.40 to 4.70 | 60 to 80 | 40 to 60 |  |  |  | O=c1[nH]c2cnc(-c3cc(-c4ccon4)n(Cc4ccccc4F)n3)nc2[nH]1 [Compound I-281]
24 | B (B = 1 to <2 fold increase) |  |  | 0 to 10 | 0 to 10 |  |  |  | Oc1ccc(-c2cc(-c3ccccn3)nn2Cc2ccccc2F)cc1 [Compound I-310]
25 | C (C = 2 to <5 fold increase) | D (D = 5 to <10 fold increase) | 4.00 to 4.22 | 10 to 20 | 20 to 40 | 0 to 10 |  |  | OCCc1cnc(-c2cc(-c3ccon3)n(Cc3ccccc3F)n2)nc1O [Compound I-210]
